Patent US4594338A, “Thioether derivatives of tylosin” (priority 1984, dated 1986)
Converted amounts (≈) assume the structure as drawn.

What was measured:
Type in all cases: cell-based
[1] = tested on: Staphylococcus aureus ATCC 6538P; assay: Minimum inhibitory concentration, Staphylococcus aureus ATCC 6538P; conditions: ATCC6538P
Excerpt: (§1) The compounds of formula (I) show antibacterial activity against both gram-positive and gram-negative bacteria. The following Tables illustrate minimum inhibitory concentrations (MIC's) for a representative sample of the compounds of the invention against gram-positive and gram-negative bacteria as well as bacteria resistant to antibiotics. In the Tables abbreviations with the symbol r attached designate resistant bacterial strains.

[2] = tested on: Staphylococcus aureus KB 199(EM^r); assay: Minimum inhibitory concentration, Staphylococcus aureus KB 199(EM^r); conditions: Staphylococcus aureus KB 199, erythromycin-resistant (EM^r)
Excerpt: as §1

[3] = tested on: Bacillus subtilis PCI 219; assay: Minimum inhibitory concentration, Bacillus subtilis PCI 219; conditions: PCI219
Excerpt: as §1

[4] = tested on: Bacillus cereus IFO 3001; assay: Minimum inhibitory concentration, Bacillus cereus IFO 3001; conditions: IFO3001
Excerpt: as §1

[5] = tested on: Micrococcus luteus ATCC 9341; assay: Minimum inhibitory concentration, Micrococcus luteus ATCC 9341; conditions: ATCC9341
Excerpt: as §1

[6] = tested on: Mycobacterium smegmatis ATCC 607; assay: Minimum inhibitory concentration, Mycobacterium smegmatis ATCC 607; conditions: Mycolicibacterium smegmatis, ATCC607
Excerpt: as §1

[7] = tested on: Escherichia coli NIHJ; assay: Minimum inhibitory concentration, Escherichia coli NIHJ
Excerpt: as §1

[8] = tested on: Klebsiella pneumoniae ATCC 10031; assay: Minimum inhibitory concentration, Klebsiella pneumoniae ATCC 10031; conditions: ATCC10031
Excerpt: as §1

[9] = tested on: Klebsiella pneumoniae PCI 602; assay: Minimum inhibitory concentration, Klebsiella pneumoniae PCI 602; conditions: PCI602
Excerpt: as §1

[10] = tested on: Salmonella typhirium KB 20; assay: Minimum inhibitory concentration, Salmonella typhirium KB 20; conditions: KB20, read-out: minimum inhibitory concentration (MIC)
Excerpt: as §1

[11] = tested on: Proteus vulgaris IFO 3167; assay: Minimum inhibitory concentration, Proteus vulgaris IFO 3167; conditions: IFO3167
Excerpt: as §1

[12] = tested on: Pseudomonas aeruginosa P-3; assay: Minimum inhibitory concentration, Pseudomonas aeruginosa P-3; conditions: P3
Excerpt: as §1

[13] = tested on: Staphylococcus aureus KB 191 (MC, TC^r); assay: Minimum inhibitory concentration against resistant strain Staphylococcus aureus KB 191
Excerpt: as §1

[14] = tested on: Staphylococcus aureus KB 219 (MC, TC, PC, CP^r); assay: Minimum inhibitory concentration against resistant strain Staphylococcus aureus KB 219
Excerpt: as §1

[15] = tested on: Staphylococcus aureus KB 224 (MC, TC, KM, SM^r); assay: Minimum inhibitory concentration against resistant strain Staphylococcus aureus KB 224
Excerpt: as §1

[16] = tested on: Staphylococcus aureus KB 221 (MC, TC, CP, KM^r); assay: Minimum inhibitory concentration against resistant strain Staphylococcus aureus KB 221
Excerpt: as §1

| SMILES | MIC [1] | MIC [2] | MIC [3] | MIC [4] | MIC [5] | MIC [6] | MIC [7] | MIC [8] | MIC [9] | MIC [10] | MIC [11] | MIC [12] | MIC [13] | MIC [14] | MIC [15] | MIC [16] |
| --- | --- | --- | --- | --- | --- | --- | --- | --- | --- | --- | --- | --- | --- | --- | --- | --- |
| CCC1OC(=O)CC(O)C(C)C(OC2OC(C)C(OC3CC(C)(O)C(O)C(C)O3)C(N(C)C)C2O)C(CC=O)CC(C)C(=O)CC(Sc2ccc(OC)cc2)C(C)=CC1COC1OC(C)C(O)C(OC)C1OC (stereo not drawn) [Compound W, 10,11-Dihydro-11-(p-methoxyphenylthio)tylosin] | 3.12 µg/mL (≈ 2.95 µM) | 50 µg/mL (≈ 47.3 µM) | 0.4 µg/mL (≈ 0.379 µM) | 0.4 µg/mL (≈ 0.379 µM) | < 0.1 µg/mL | > 100 µg/mL | 100 µg/mL (≈ 94.7 µM) | 100 µg/mL (≈ 94.7 µM) | 100 µg/mL (≈ 94.7 µM) | 100 µg/mL (≈ 94.7 µM) | 50 µg/mL (≈ 47.3 µM) | > 100 µg/mL | 50 µg/mL (≈ 47.3 µM) | 100 µg/mL (≈ 94.7 µM) | 50 µg/mL (≈ 47.3 µM) | – |
| CCSC1CC(=O)C(C)CC(CC=O)C(OC2OC(C)C(OC3CC(C)(O)C(O)C(C)O3)C(N(C)C)C2O)C(C)C(O)CC(=O)OC(CC)C(COC2OC(C)C(O)C(OC)C2OC)C=C1C (stereo not drawn) [Compound R, 11-(Ethylthio)-10,11-dihydrotylosin] | 1.56 µg/mL (≈ 1.59 µM) | > 100 µg/mL | 0.78 µg/mL (≈ 0.797 µM) | 0.78 µg/mL (≈ 0.797 µM) | < 0.1 µg/mL | 100 µg/mL (≈ 102 µM) | 100 µg/mL (≈ 102 µM) | 100 µg/mL (≈ 102 µM) | 100 µg/mL (≈ 102 µM) | > 100 µg/mL | > 100 µg/mL | > 100 µg/mL | – | – | – | – |
| CCC1OC(=O)CC(O)C(C)C(OC2OC(C)C(O)C(N(C)C)C2O)C(CC=O)CC(C)C(=O)CC(SCCO)C(C)=CC1COC1OC(C)C(O)C(OC)C1OC (stereo not drawn) [O, 10,11-Dihydro-11-(2-hydroxyethylthio)demycarosyltylosin] | 12.5 µg/mL (≈ 14.7 µM) | > 100 µg/mL | 12.5 µg/mL (≈ 14.7 µM) | 3.12 µg/mL (≈ 3.67 µM) | 0.4 µg/mL (≈ 0.471 µM) | > 100 µg/mL | > 100 µg/mL | > 100 µg/mL | > 100 µg/mL | > 100 µg/mL | > 100 µg/mL | > 100 µg/mL | – | – | – | – |
| CCC1OC(=O)CC(O)C(C)C(OC2OC(C)C(OC3CC(C)(O)C(O)C(C)O3)C(N(C)C)C2O)C(CC=O)CC(C)C(=O)CC(Sc2ccccc2)C(C)=CC1COC1OC(C)C(O)C(OC)C1OC (stereo not drawn) [Compound S, 10,11-Dihydro-11-(phenylthio)tylosin] | 1.56 µg/mL (≈ 1.52 µM) | 50 µg/mL (≈ 48.7 µM) | 0.4 µg/mL (≈ 0.39 µM) | 0.4 µg/mL (≈ 0.39 µM) | < 0.1 µg/mL | 50 µg/mL (≈ 48.7 µM) | 100 µg/mL (≈ 97.4 µM) | 100 µg/mL (≈ 97.4 µM) | 100 µg/mL (≈ 97.4 µM) | 100 µg/mL (≈ 97.4 µM) | 100 µg/mL (≈ 97.4 µM) | > 100 µg/mL | 50 µg/mL (≈ 48.7 µM) | 100 µg/mL (≈ 97.4 µM) | 50 µg/mL (≈ 48.7 µM) | 50 µg/mL (≈ 48.7 µM) |
| CCC1OC(=O)CC(O)C(C)C(OC2OC(C)C(OC3CC(C)(O)C(O)C(C)O3)C(N(C)C)C2O)C(CC=O)CC(C)C(=O)CC(Sc2ccc(Cl)cc2)C(C)=CC1COC1OC(C)C(O)C(OC)C1OC (stereo not drawn) [Compound T, 11-(p-Chlorophenylthio)-10,11-dihydrotylosin] | 3.12 µg/mL (≈ 2.94 µM) | 25 µg/mL (≈ 23.6 µM) | 0.4 µg/mL (≈ 0.377 µM) | 0.4 µg/mL (≈ 0.377 µM) | < 0.1 µg/mL | 50 µg/mL (≈ 47.1 µM) | 100 µg/mL (≈ 94.3 µM) | 100 µg/mL (≈ 94.3 µM) | 100 µg/mL (≈ 94.3 µM) | 100 µg/mL (≈ 94.3 µM) | 50 µg/mL (≈ 47.1 µM) | > 100 µg/mL | 25 µg/mL (≈ 23.6 µM) | 50 µg/mL (≈ 47.1 µM) | 25 µg/mL (≈ 23.6 µM) | – |
| CCC1OC(=O)CC(O)C(C)C(OC2OC(C)C(OC3CC(C)(O)C(O)C(C)O3)C(N(C)C)C2O)C(CC(Sc2ccccc2)Sc2ccccc2)CC(C)C(=O)C=CC(C)=CC1COC1OC(C)C(O)C(OC)C1OC (stereo not drawn) [Compound C, Tylosin Diphenyl Thioacetal] | 12.5 µg/mL (≈ 11.2 µM) | > 50 µg/mL | 0.78 µg/mL (≈ 0.697 µM) | 0.78 µg/mL (≈ 0.697 µM) | 0.2 µg/mL (≈ 0.179 µM) | 50 µg/mL (≈ 44.7 µM) | > 100 µg/mL | > 100 µg/mL | > 100 µg/mL | > 100 µg/mL | > 100 µg/mL | – | – | – | – | – |
| CCC1OC(=O)CC(O)C(C)C(OC2OC(C)C(OC3CC(C)(O)C(O)C(C)O3)C(N(C)C)C2O)C(CC=O)CC(C)C(=O)CC(Sc2ccc(N)cc2)C(C)=CC1COC1OC(C)C(O)C(OC)C1OC (stereo not drawn) [Compound U, 11-(p-Aminophenylthio)-10,11-dihydrotylosin] | 6.25 µg/mL (≈ 6 µM) | > 100 µg/mL | 0.4 µg/mL (≈ 0.384 µM) | 1.56 µg/mL (≈ 1.5 µM) | 0.78 µg/mL (≈ 0.749 µM) | > 100 µg/mL | > 100 µg/mL | > 100 µg/mL | > 100 µg/mL | > 100 µg/mL | > 100 µg/mL | > 100 µg/mL | 25 µg/mL (≈ 24 µM) | 50 µg/mL (≈ 48 µM) | 25 µg/mL (≈ 24 µM) | – |
| CCC1OC(=O)CC(O)C(C)C(OC2OC(C)C(O)C(N(C)C)C2O)C(CC=O)CC(C)C(=O)CC(Sc2ccccc2)C(C)=CC1COC1OC(C)C(O)C(OC)C1OC (stereo not drawn) [Compound Q, 10,11-Dihydro-11-(phenylthio)demycarosyltylosin] | 0.78 µg/mL (≈ 0.884 µM) | > 100 µg/mL | 0.78 µg/mL (≈ 0.884 µM) | 0.2 µg/mL (≈ 0.227 µM) | < 0.1 µg/mL | > 100 µg/mL | 100 µg/mL (≈ 113 µM) | 100 µg/mL (≈ 113 µM) | 100 µg/mL (≈ 113 µM) | 100 µg/mL (≈ 113 µM) | 50 µg/mL (≈ 56.7 µM) | > 100 µg/mL | – | – | – | – |
| CCC1OC(=O)CC(O)C(C)C(OC2OC(C)C(OC3CC(C)(O)C(O)C(C)O3)C(N(C)C)C2O)C(CC=O)CC(C)C(=O)CC(Sc2ccc(C)cc2)C(C)=CC1COC1OC(C)C(O)C(OC)C1OC (stereo not drawn) [Compound V, 10,11-Dihydro-11-(p-methylphenylthio)tylosin] | 3.12 µg/mL (≈ 3 µM) | 25 µg/mL (≈ 24 µM) | 0.4 µg/mL (≈ 0.384 µM) | 0.4 µg/mL (≈ 0.384 µM) | < 0.1 µg/mL | 50 µg/mL (≈ 48.1 µM) | 100 µg/mL (≈ 96.1 µM) | 100 µg/mL (≈ 96.1 µM) | 100 µg/mL (≈ 96.1 µM) | 100 µg/mL (≈ 96.1 µM) | 50 µg/mL (≈ 48.1 µM) | > 100 µg/mL | – | – | – | – |
| CCSC1CC(=O)C(C)CC(CC=O)C(OC2OC(C)C(O)C(N(C)C)C2O)C(C)C(O)CC(=O)OC(CC)C(COC2OC(C)C(O)C(OC)C2OC)C=C1C (stereo not drawn) [Compound N, 11-(Ethylthio)-10,11-dihydrodemycarosyltylosin] | 1.56 µg/mL (≈ 1.87 µM) | > 100 µg/mL | 0.78 µg/mL (≈ 0.935 µM) | 0.78 µg/mL (≈ 0.935 µM) | 0.2 µg/mL (≈ 0.24 µM) | > 100 µg/mL | > 100 µg/mL | 50 µg/mL (≈ 59.9 µM) | > 100 µg/mL | > 100 µg/mL | > 100 µg/mL | > 100 µg/mL | – | – | – | – |
| CCC1OC(=O)CC(O)C(C)C(OC2OC(C)C(O)C(N(C)C)C2O)C(CC=O)CC(C)C(=O)CC(Sc2ccc(N)cc2)C(C)=CC1COC1OC(C)C(O)C(OC)C1OC (stereo not drawn) [Compound P, 11-(p-Aminophenylthio)-10,11-dihydrodemycarosyltylosin] | 3.12 µg/mL (≈ 3.48 µM) | > 100 µg/mL | 3.12 µg/mL (≈ 3.48 µM) | 0.78 µg/mL (≈ 0.869 µM) | 0.2 µg/mL (≈ 0.223 µM) | > 100 µg/mL | > 100 µg/mL | 100 µg/mL (≈ 111 µM) | > 100 µg/mL | > 100 µg/mL | > 100 µg/mL | > 100 µg/mL | – | – | – | – |
